According to patent US20070027178A1, “Substituted tetrahydro-1H-pyrido[4,3-b]indoles as serotonin receptors agonists and antagonists” (Bristol-Myers Squibb Company, priority 2005, published 2007):

| SMILES | melting point [°C] |
| --- | --- |
| Cc1cc(C(F)(F)F)c2[nH]c3c(c2c1)CNCC3.Cl | 338 to 342 |
| COc1cc(C(F)(F)F)c2[nH]c3c(c2c1)CNCC3 [Example 23, 8-Methoxy-6-(trifluoromethyl)-2,3,4,5-tetrahydro-1H-pyrido [4,3-b]indole] | 140 to 144 |
